According to PubChem BioAssay (NCI):
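Briefly, cells in 96-well plates were exposed to five compound concentrations for 48 h, and endpoints were estimated by linear interpolation. Here, GI50 denotes the concentration required for 50% inhibition of growth. The concentration for full growth arrest is given as TGI.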

How the values were obtained:
Assay in all cases: DTP human tumour cell line panel, 48 h
MALME-3M melanoma = tested on: MALME-3M melanoma
SF-295 CNS = tested on: SF-295 CNS
A498 renal = tested on: A498 renal
EKVX NSCLC = tested on: EKVX NSCLC
NCI-H460 lung = tested on: NCI-H460 lung
TK-10 renal = tested on: TK-10 renal
SF-268 CNS = tested on: SF-268 CNS
CAKI-1 renal = tested on: CAKI-1 renal
NCI/ADR-RES ovarian = tested on: NCI/ADR-RES ovarian
MDA-MB-231 breast = tested on: MDA-MB-231 breast

## Cc1ccc(/C=C(\NC(=O)c2ccccc2)c2nc3ccccc3[nH]2)cc1
MALME-3M melanoma
  TGI: > 100 µM
SF-295 CNS
  TGI: > 100 µM
A498 renal
  TGI: > 100 µM
EKVX NSCLC
  TGI: > 100 µM
NCI-H460 lung
  TGI: > 100 µM
TK-10 renal
  TGI: > 100 µM
SF-268 CNS
  TGI: > 100 µM

## CC(C)[C@@](O)(c1ccc2cc(OC(F)F)c(OC(F)F)cc2c1)c1cn[nH]n1
MALME-3M melanoma
  GI50: 16.8 µM
  TGI: 39.2 µM
SF-295 CNS
  GI50: 14.2 µM
  TGI: 29.7 µM
CAKI-1 renal
  GI50: 14.6 µM
  TGI: 38.2 µM
NCI/ADR-RES ovarian
  GI50: 18.5 µM
  TGI: 50.9 µM
EKVX NSCLC
  GI50: 11 µM
  TGI: 29.9 µM
NCI-H460 lung
  GI50: 18 µM
  TGI: 37.4 µM
TK-10 renal
  GI50: 14.9 µM
  TGI: 32.9 µM
SF-268 CNS
  GI50: 18.6 µM
  TGI: 49.4 µM
MDA-MB-231 breast
  GI50: 18.5 µM
  TGI: 39.1 µM

## COC(=O)c1ccc(/C=C(\c2ccc([N+](=O)[O-])o2)S(=O)(=O)c2ccc(NC(C)=O)cc2)o1
MALME-3M melanoma
  TGI: 8.91 µM
SF-295 CNS
  TGI: 32.7 µM
CAKI-1 renal
  TGI: 29.4 µM
NCI/ADR-RES ovarian
  TGI: 30.5 µM
EKVX NSCLC
  TGI: 26.3 µM
NCI-H460 lung
  TGI: 53.9 µM
TK-10 renal
  TGI: 16.2 µM
SF-268 CNS
  TGI: 30.9 µM
MDA-MB-231 breast
  TGI: 5.77 µM

## Cc1cc(N2CCCCC2)nc(NC2CCCC(Nc3ccnc4cc(Cl)ccc34)C2)n1 (configuration not stated)
SF-295 CNS
  GI50: 1.52 µM
  TGI: 2.92 µM
A498 renal
  GI50: 1.67 µM
  TGI: 3.42 µM
EKVX NSCLC
  GI50: 1.54 µM
  TGI: 3.54 µM
NCI-H460 lung
  GI50: 1.39 µM
  TGI: 2.86 µM
TK-10 renal
  GI50: 2.07 µM
  TGI: 4.25 µM

## NC1CCCCC1N.O=C1C=C/C(=C(/c2ccc(O)c(Br)c2)c2ccccc2S(=O)(=O)[O-])C=C1Br.O=C1C=C/C(=C(/c2ccc(O)c(Br)c2)c2ccccc2S(=O)(=O)[O-])C=C1Br.[Pt+4]
MALME-3M melanoma
  GI50: 0.664 µM
  TGI: 21.3 µM
SF-295 CNS
  GI50: 4.99 µM
  TGI: > 100 µM
A498 renal
  GI50: 22.1 µM
  TGI: > 100 µM
EKVX NSCLC
  GI50: 93 µM
  TGI: > 100 µM
NCI-H460 lung
  GI50: 1.54 µM
  TGI: > 100 µM
TK-10 renal
  GI50: 57.2 µM
  TGI: > 100 µM
SF-268 CNS
  GI50: 0.885 µM
  TGI: > 100 µM

## N#CCC(=O)N/N=C1/C(=O)N(c2cc(Cl)ccc2Cl)C(=O)C(=O)C1c1nc2ccccc2s1 (configuration not stated)
MALME-3M melanoma
  TGI: > 100 µM
SF-295 CNS
  TGI: > 100 µM
A498 renal
  TGI: > 100 µM
CAKI-1 renal
  TGI: 94.4 µM
EKVX NSCLC
  TGI: > 100 µM
NCI-H460 lung
  TGI: > 100 µM
TK-10 renal
  TGI: > 100 µM
SF-268 CNS
  TGI: > 100 µM

## NS(=O)(=O)c1ccc(NC(=O)Cc2nc3ccccc3s2)cc1
MALME-3M melanoma
  TGI: 30.3 µM
SF-295 CNS
  TGI: 33.2 µM
A498 renal
  TGI: 36.8 µM
CAKI-1 renal
  TGI: 30.5 µM
EKVX NSCLC
  TGI: 37.2 µM
NCI-H460 lung
  TGI: 35.6 µM
TK-10 renal
  TGI: 44.9 µM
SF-268 CNS
  TGI: 30.7 µM

## CSc1ccc2c(cc1=O)[C@@H](NC(=O)c1ccc(Cl)cc1)CCc1cc(O)c(O)c(O)c1-2
MALME-3M melanoma
  TGI: > 100 µM
SF-295 CNS
  TGI: > 100 µM
A498 renal
  TGI: > 100 µM
CAKI-1 renal
  TGI: > 100 µM
EKVX NSCLC
  TGI: > 100 µM
NCI-H460 lung
  TGI: > 100 µM
TK-10 renal
  TGI: > 100 µM
SF-268 CNS
  TGI: > 100 µM

## CCN(CC)CC(C)C(=O)/C=C/c1ccc(C)cc1 (configuration not stated)
MALME-3M melanoma
  TGI: 7.08 µM
SF-295 CNS
  TGI: 28.6 µM
A498 renal
  TGI: 20.6 µM
CAKI-1 renal
  TGI: 2.49 µM
EKVX NSCLC
  TGI: 26.8 µM
NCI-H460 lung
  TGI: 17 µM
TK-10 renal
  TGI: 3.69 µM
SF-268 CNS
  TGI: 4.51 µM

## CSc1nc2nn(Cc3ccccc3)cc2c(=O)[nH]1
MALME-3M melanoma
  TGI: > 100 µM
SF-295 CNS
  TGI: > 100 µM
A498 renal
  TGI: > 100 µM
CAKI-1 renal
  TGI: > 100 µM
EKVX NSCLC
  TGI: > 100 µM
NCI-H460 lung
  TGI: > 100 µM
TK-10 renal
  TGI: > 100 µM
SF-268 CNS
  TGI: > 100 µM

## O=C(N/C(=C\c1cccc([N+](=O)[O-])c1)c1nc2ccccc2[nH]1)c1ccccc1
MALME-3M melanoma
  TGI: > 100 µM
A498 renal
  TGI: > 100 µM
CAKI-1 renal
  TGI: > 100 µM
EKVX NSCLC
  TGI: > 100 µM
NCI-H460 lung
  TGI: > 100 µM
SF-268 CNS
  TGI: > 100 µM

## Oc1ccc2c3c1OC1c4[nH]ncc4C[C@H]4[C@@H](C2)N(CC2CC2)CC[C@]314 (some centres not stated)
MALME-3M melanoma
  TGI: > 100 µM
SF-295 CNS
  TGI: > 100 µM
CAKI-1 renal
  TGI: > 100 µM
NCI/ADR-RES ovarian
  TGI: > 100 µM
EKVX NSCLC
  TGI: > 100 µM
NCI-H460 lung
  TGI: > 100 µM
TK-10 renal
  TGI: > 100 µM
SF-268 CNS
  TGI: > 100 µM
MDA-MB-231 breast
  TGI: > 100 µM

## Cn1c2c(c3ccccc31)CCN(CCCCN1CCN(c3ccccc3)CC1)C2=O
MALME-3M melanoma
  TGI: 30.9 µM
SF-295 CNS
  TGI: > 100 µM
A498 renal
  TGI: > 100 µM
CAKI-1 renal
  TGI: 98.5 µM
EKVX NSCLC
  TGI: > 71.9 µM
NCI-H460 lung
  TGI: > 93.8 µM
TK-10 renal
  TGI: > 90.4 µM
SF-268 CNS
  TGI: > 78.4 µM

## C=C1C(=O)O[C@H]2[C@H](OC(C)=O)[C@@H](C)CCCC3(C)OC3CCC3(CO3)[C@H](O)C[C@@H]12 (some centres not stated)
MALME-3M melanoma
  GI50: 6.01 µM
  TGI: 21.6 µM
SF-295 CNS
  GI50: 11.4 µM
  TGI: 28.3 µM
CAKI-1 renal
  GI50: 12.1 µM
  TGI: 27.8 µM
EKVX NSCLC
  GI50: 12.1 µM
  TGI: 30.3 µM
NCI-H460 lung
  GI50: 12.9 µM
  TGI: 36 µM
TK-10 renal
  GI50: 7.39 µM
  TGI: 21.2 µM
SF-268 CNS
  GI50: 15.2 µM
  TGI: 40.4 µM
MDA-MB-231 breast
  GI50: 8.22 µM
  TGI: 23.9 µM

## CC(C)(C)c1cc(CCCCCCCC2(CCCCCCCc3cc(C(C)(C)C)cc(C(C)(C)C)c3)OC(COCCOCCCCCC#N)C(COCCOCCCCCC#N)O2)cc(C(C)(C)C)c1 (configuration not stated)
MALME-3M melanoma
  TGI: > 100 µM
SF-295 CNS
  TGI: > 100 µM
A498 renal
  TGI: > 100 µM
CAKI-1 renal
  TGI: > 100 µM
EKVX NSCLC
  TGI: > 100 µM
NCI-H460 lung
  TGI: > 100 µM
TK-10 renal
  TGI: > 100 µM
SF-268 CNS
  TGI: > 100 µM

## O=C(/C=C/c1ccccc1O)c1ccc([N+](=O)[O-])cc1
MALME-3M melanoma
  TGI: > 100 µM
SF-295 CNS
  TGI: 56.5 µM
A498 renal
  TGI: 40.9 µM
CAKI-1 renal
  TGI: 39.1 µM
EKVX NSCLC
  TGI: 43.4 µM
NCI-H460 lung
  TGI: 50.5 µM
TK-10 renal
  TGI: 77.2 µM
SF-268 CNS
  TGI: 66.9 µM

## CCn1c2ccccc2c(=O)c2c(OC)ccc(OC)c21
MALME-3M melanoma
  TGI: > 100 µM
SF-295 CNS
  TGI: > 100 µM
A498 renal
  TGI: > 100 µM
CAKI-1 renal
  TGI: > 100 µM
EKVX NSCLC
  TGI: > 100 µM
NCI-H460 lung
  TGI: > 100 µM
SF-268 CNS
  TGI: > 100 µM

## COC(=O)c1ncc2c(=O)[nH]c3ccccc3c2c1C(=O)OC
MALME-3M melanoma
  TGI: > 100 µM
SF-295 CNS
  TGI: > 100 µM
A498 renal
  TGI: > 100 µM
CAKI-1 renal
  TGI: > 100 µM
EKVX NSCLC
  TGI: > 100 µM
NCI-H460 lung
  TGI: 47.3 µM
TK-10 renal
  TGI: > 100 µM
SF-268 CNS
  TGI: > 100 µM

## CC(C)(C)C(=O)Nc1cccc2oc(-c3ccccc3)cc12
SF-295 CNS
  TGI: > 100 µM
A498 renal
  TGI: > 100 µM
CAKI-1 renal
  TGI: > 100 µM
EKVX NSCLC
  TGI: > 100 µM
NCI-H460 lung
  TGI: > 100 µM

## CCCCCCn1c(SC)nc(COC(=O)NC)c1COC(=O)NC
SF-295 CNS
  TGI: 35.1 µM
A498 renal
  TGI: 30.8 µM
CAKI-1 renal
  TGI: 29.1 µM
NCI/ADR-RES ovarian
  TGI: 69.3 µM
EKVX NSCLC
  TGI: 27.1 µM
NCI-H460 lung
  TGI: 37.3 µM
TK-10 renal
  TGI: 31.2 µM
SF-268 CNS
  TGI: 30.6 µM
MDA-MB-231 breast
  TGI: 32.8 µM

## O=C(O)c1ccc(C(O)(c2ccccc2)c2ccccc2)cc1
MALME-3M melanoma
  TGI: > 100 µM
SF-295 CNS
  TGI: > 100 µM
CAKI-1 renal
  TGI: > 100 µM
NCI/ADR-RES ovarian
  TGI: > 100 µM
EKVX NSCLC
  TGI: > 100 µM
TK-10 renal
  TGI: > 100 µM
SF-268 CNS
  TGI: > 100 µM
MDA-MB-231 breast
  TGI: > 100 µM

## Cc1[nH]c2ccccc2c1CC/C(=N\Nc1ccccc1)c1ccccc1
MALME-3M melanoma
  TGI: > 100 µM
SF-295 CNS
  TGI: > 100 µM
A498 renal
  TGI: > 100 µM
CAKI-1 renal
  TGI: > 100 µM
EKVX NSCLC
  TGI: > 100 µM
NCI-H460 lung
  TGI: > 100 µM
TK-10 renal
  TGI: > 100 µM
